Data published in patent publication US10392422B2, “Macrocyclic broad spectrum antibiotics” (priority 2014, dated 2019).
≈ marks a conversion by molar mass, not a printed value. Read-outs that look alike come from different tables or passages of the source.

Legend:
Assay in all cases: MIC, broth micro-dilution technique (CLSI)
[1] = system: Escherichia coli MC4100 harboring the IMP4213; format: cell-based; conditions: for MIC: Escherichia coli, 22 h; for MIC (μg/mL) E. coli: Table 1 protocol: serial 2-fold dilutions starting from 64 μg/ml
In short: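 CLSI broth microdilution in cation-adjusted Mueller Hinton broth with 0.002% Tween-80. Ten 2-fold dilutions started from 64 μg/ml, or from 4 μg/mL in the modified protocol. Inoculum at final OD600 0.0005; MIC read after 22 h at 35 °C. E. coli strain carries imp4213 (increased outer-membrane permeability).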

[2] = system: Methicillin Resistant Staphylococcus aureus strain USA 300 (NRS384); format: cell-based; conditions: for MIC: Staphylococcus aureus, 22 h, read-out: MIC (μg/mL) S. aureus
In short: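 Cation-adjusted MHB + 0.002% Tween-80; 10-point 2-fold series starting 64 μg/ml (modified protocol: 4 μg/mL). Final inoculum OD600 0.0005; 35° C, 22 h. MIC per CLSI M07-A8 broth microdilution.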

[3] = system: MRSA COL (NRS100); format: cell-based, Staphylococcus aureus; conditions: for MIC: Staphylococcus aureus, 22 h, read-out: MIC (μg/mL) (COL)
Procedure: In vitro antimicrobial activity of each compound was determined by measuring minimal inhibitor concentrations (MICs) using the broth micro-dilution technique as approved by the Clinical and Laboratory Standards Institute (CLSI) (Methods for Dilution Antimicrobial Susceptibility Tests for Bacteria that Grow Aerobically; Approved Standard—Eighth Edition. CLSI document M07-A8. Wayne, Pa.: Clinical and Laboratory Standards; 2009). Antibacterial activity was measured against three strains of bacteria: a Methicillin Resistant Staphylococcus aureus strain USA 300 (NRS384); a MRSA COL (NRS100), another Methicillin Resistant Staphylococcus aureus strain; and a strain of Escherichia coli MC4100 harboring the IMP4213, which results in increased outer-membrane permeability (B Martin and Silhavy T. Imp/OstA is required for cell envelope biogenesis in Escherichia coli. (2002) Molecular Microbiology, 45(5), 1289-1302). Cells were inoculated onto plates of Trypyticase Soy Agar or Luria Agar respectively and grown at 35° C. for 20 hours. Inocula suspensions were prepared by scraping cells into 1 ml of testing media (cation adjusted Mueller Hinton Broth supplemented with 0.002% v/v Tween-80) and diluting to a final OD600 nm of 0.01.
Test compounds were prepared in DMSO at a concentration of 10 mg/ml. These compound stocks were diluted into testing media at a concentration of 64 μg/ml and serial 2-fold dilutions were made in the same media, in 96-well U bottom microtiter dishes, for a total of 10 compound concentrations (Table 1). In modified protocols (Table 2), compound stocks were diluted into testing media at a concentration of 4 μg/mL and serial 2-fold dilutions were made in the same media, in 96-well U bottom microtiter dishes, for a total of 10 compound concentrations. Inocula suspensions were added to the 2-fold serial dilutions of test compounds to a final density of OD OD600 nm of 0.0005 and incubated at 35° C. for 22 hours. […] The results from the protocol starting from a concentration of 64 µg/mL are listed in Table 1 and the results from the modified protocol are shown in Table 2.

[4] = read-out: MIC (μg/mL) E. coli, Table 1 protocol: serial 2-fold dilutions starting from 64 μg/ml, 35° C., 22 hours
[5] = Table 1 protocol: serial 2-fold dilutions starting from 64 μg/ml, 35° C., 22 hours

| Structure (SMILES) | MIC [1, 4] | MIC [2, 5] | MIC [3, 5] | MIC [2] | MIC [3] | other results |
| --- | --- | --- | --- | --- | --- | --- |
| C[C@H](NC(=O)[C@@H]1Cc2ccc(O)c(c2)-c2cc(ccc2O)[C@H](N(C)C(=O)[C@H](CCCCN)NC(=O)c2ccc(-c3ccc(Cl)cc3)cc2)C(=O)N[C@@H](C)C(=O)N1)C(=O)N[C@@H]1CCNC1=O [Compound 137] | 32 µg/mL (≈ 35.2 µM) | 32 µg/mL (≈ 35.2 µM) | 8 µg/mL (≈ 8.8 µM) |  |  |  |
| C[C@@H]1NC(=O)[C@@H](N(C)C(=O)[C@H](CCCCN)NC(=O)c2ccc(-c3ccc(Cl)cc3)cc2)c2ccc(O)c(c2)-c2cc(ccc2O)C[C@@H](C(=O)N[C@@H](C)C(=O)N(C)[C@@H]2CCNC2=O)NC1=O [Compound 138] | 64 µg/mL (≈ 69.3 µM) |  |  | 32 µg/mL (≈ 34.7 µM) | 17 µg/mL (≈ 18.4 µM) |  |
| COC(=O)C(=O)[C@H](C)NC(=O)[C@@H]1Cc2ccc(O)c(c2)-c2cc(ccc2O)[C@H](N(C)C(=O)[C@H](CCCCN)NC(=O)c2ccc(-c3ccc(Cl)cc3)cc2)C(=O)N[C@@H](C)C(=O)N1 [Compound 139] | 8 µg/mL (≈ 9.2 µM) |  |  | 11 µg/mL (≈ 12.7 µM) | 4 µg/mL (≈ 4.6 µM) |  |
| C[C@@H]1NC(=O)[C@@H](N(C)C(=O)[C@H](CCCCN)NC(=O)c2ccc(-c3ccc(Cl)cc3)cc2)c2ccc(O)c(c2)-c2cc(ccc2O)C[C@@H](C(=O)N[C@@H](C)C(=O)C(=O)O)NC1=O [Compound 140] | 8 µg/mL (≈ 9.35 µM) |  |  | 23 µg/mL (≈ 26.9 µM) | 8 µg/mL (≈ 9.35 µM) |  |
| C[C@@H]1NC(=O)[C@@H](N(C)C(=O)[C@H](CCCCN)NC(=O)c2ccc(-c3ccc(Cl)cc3)cc2)c2ccc(O)c(c2)-c2cc(ccc2O)C[C@@H](C(=O)N[C@@H](C)C(=O)C(=O)NCc2cc[nH]n2)NC1=O [Compound 141] | 32 µg/mL (≈ 34.2 µM) | 8 µg/mL (≈ 8.56 µM) | 4 µg/mL (≈ 4.28 µM) |  |  |  |
| C[C@@H]1NC(=O)[C@@H](N(C)C(=O)[C@H](CCCCN)NC(=O)c2ccc(-c3ccc(Cl)cc3)cc2)c2ccc(O)c(c2)-c2cc(ccc2O)C[C@@H](C(=O)N[C@@H](C)C(=O)C(=O)N[C@@H]2CCNC2=O)NC1=O [Compound 142] | 16 µg/mL (≈ 17.1 µM) | 64 µg/mL (≈ 68.3 µM) | 16 µg/mL (≈ 17.1 µM) |  |  |  |
| C[C@@H]1NC(=O)[C@@H](N(C)C(=O)[C@H](CCCCN)NC(=O)c2ccc(-c3ccc(Cl)cc3)cc2)c2ccc(O)c(c2)-c2cc(ccc2O)C[C@@H](C(=O)N[C@@H](C)/C=C/S(C)(=O)=O)NC1=O [Compound 144] | 32 µg/mL (≈ 36.1 µM) |  |  | 8 µg/mL (≈ 9.01 µM) | 2 µg/mL (≈ 2.25 µM) |  |
| C[C@@H]1NC(=O)[C@@H](N(C)C(=O)[C@H](CCCCN)NC(=O)c2ccc(-c3ccc(Cl)cc3)cc2)c2ccc(O)c(c2)-c2cc(ccc2O)C[C@@H](C(=O)N[C@@H](C)/C=C\S(C)(=O)=O)NC1=O [Compound 145] | > 64 µg/mL |  |  | > 64 µg/mL | 64 µg/mL (≈ 72.1 µM) |  |
| C[C@H](NC(=O)CCC(=O)[C@H](C)NC(=O)[C@@H]1Cc2ccc(O)c(c2)-c2cc(ccc2O)[C@H](N(C)C(=O)[C@H](CCCCN)NC(=O)c2ccc(-c3ccc(Cl)cc3)cc2)C(=O)N[C@@H](C)C(=O)N1)C(=O)O [Compound 147] | > 64 µg/mL |  |  | > 64 µg/mL | > 64 µg/mL |  |
| CNC(=O)CCC(=O)[C@H](C)NC(=O)[C@@H]1Cc2ccc(O)c(c2)-c2cc(ccc2O)[C@H](N(C)C(=O)[C@H](CCCCN)NC(=O)c2ccc(-c3ccc(Cl)cc3)cc2)C(=O)N[C@@H](C)C(=O)N1 [Compound 149] | 64 µg/mL (≈ 71.4 µM) | > 64 µg/mL | 64 µg/mL (≈ 71.4 µM) |  |  |  |
| C[C@@H]1NC(=O)[C@@H](N(C)C(=O)[C@H](CCCCN)NC(=O)c2ccc(-c3ccc(Cl)cc3)cc2)c2ccc(O)c(c2)-c2cc(ccc2O)C[C@@H](C(=O)N[C@@H](C)C(=O)C(F)(F)C(=O)O)NC1=O [Compound 152] |  |  |  |  |  | MIC (μg/mL) E. coli ([1]; 35° C., 22 hours): 16 µg/mL (≈ 17.7 µM); MIC (μg/mL) S. aureus [2, 5]: 10 µg/mL (≈ 11 µM); MIC (μg/mL) (COL) [3, 5]: 4 µg/mL (≈ 4.42 µM) |
| C[C@@H]1NC(=O)[C@@H](N(C)C(=O)[C@H](CCCCN)NC(=O)c2ccc(-c3ccc(Cl)cc3)cc2)c2ccc(O)c(c2)-c2cc(ccc2O)C[C@@H](C(=O)N[C@@H](C)C(=O)N(C)[C@@H](CC(=O)O)C(N)=O)NC1=O [Compound 158] | 64 µg/mL (≈ 67 µM) |  |  | 23 µg/mL (≈ 24.1 µM) | 8 µg/mL (≈ 8.37 µM) |  |
| C[C@@H]1NC(=O)[C@@H](N(C)C(=O)[C@H](CCCCN)NC(=O)c2ccc(-c3ccc(Cl)cc3)cc2)c2ccc(O)c(c2)-c2cc(ccc2O)C[C@@H](C(=O)N[C@@H](C)C(=O)N(C)[C@@H](CCC(=O)O)C(N)=O)NC1=O [Compound 159] | 32 µg/mL (≈ 33 µM) | 23 µg/mL (≈ 23.7 µM) | 8 µg/mL (≈ 8.25 µM) |  |  |  |
| C[C@@H]1NC(=O)[C@@H](N(C)C(=O)[C@H](CCCCN)NC(=O)c2ccc(-c3ccc(Cl)cc3)cc2)c2ccc(O)c(c2)-c2cc(ccc2O)C[C@@H](C(=O)N[C@@H](C)C(=O)N2CCCC23CCNC3=O)NC1=O (stereo partly drawn) [Compound 160] | 64 µg/mL (≈ 67.4 µM) | > 64 µg/mL | > 64 µg/mL |  |  |  |
| C[C@@H]1NC(=O)[C@@H](N(C)C(=O)[C@H](CCCCN)NC(=O)c2ccc(-c3ccc(Cl)cc3)cc2)c2ccc(O)c(c2)-c2cc(ccc2O)C[C@@H](C(=O)N[C@@H](C)C(=O)N2CCCC23CCNC3=O)NC1=O (stereo partly drawn) [Compound 161] |  |  |  |  |  | MIC (μg/mL) E. coli ([1]; 35° C., 22 hours): 64 µg/mL (≈ 67.4 µM); MIC (μg/mL) S. aureus [2, 5]: 64 µg/mL (≈ 67.4 µM); MIC (μg/mL) (COL) [3, 5]: 32 µg/mL (≈ 33.7 µM) |
| C[C@H](NC(=O)[C@@H]1Cc2ccc(O)c(c2)-c2cc(ccc2O)[C@H](N(C)C(=O)[C@H](CCCCN)NC(=O)c2ccc(-c3ccc(Cl)cc3)cc2)C(=O)N[C@@H](C)C(=O)N1)C(=O)CNS(C)(=O)=O [Compound 162] | 32 µg/mL (≈ 34.8 µM) |  |  | 8 µg/mL (≈ 8.71 µM) | 2 µg/mL (≈ 2.18 µM) |  |
| CCCCCCCCCCNCCS(=O)(=O)N[C@@H](CCCCN)C(=O)N(C)[C@@H]1C(=O)N[C@@H](C)C(=O)N[C@H](C(=O)N[C@@H](C)C(C)=O)Cc2ccc(O)c(c2)-c2cc1ccc2O [Compound 163] | 16 µg/mL (≈ 18.6 µM) | 0.13 µg/mL (≈ 0.151 µM) | 0.11 µg/mL (≈ 0.128 µM) |  |  |  |
| C[C@H](NC(=O)[C@@H]1Cc2ccc(O)c(c2)-c2cc(ccc2O)[C@H](N(C)C(=O)[C@H](CCCCN)NC(=O)c2ccc(-c3ccc(Cl)cc3)cc2)C(=O)N[C@@H](C)C(=O)N1)C(=O)CP(=O)(O)O [Compound 166] |  |  |  | 32 µg/mL (≈ 35.3 µM) | 8 µg/mL (≈ 8.84 µM) | MIC ([1]; read-out: MIC (μg/mL) E. coli): > 64 µg/mL |
| COP(=O)(O)CC(=O)[C@H](C)NC(=O)[C@@H]1Cc2ccc(O)c(c2)-c2cc(ccc2O)[C@H](N(C)C(=O)[C@H](CCCCN)NC(=O)c2ccc(-c3ccc(Cl)cc3)cc2)C(=O)N[C@@H](C)C(=O)N1 [Compound 167] |  |  |  | 16 µg/mL (≈ 17.4 µM) | 4 µg/mL (≈ 4.35 µM) | MIC ([1]; read-out: MIC (μg/mL) E. coli): > 64 µg/mL |
| C[C@@H]1NC(=O)[C@@H](N(C)C(=O)[C@H](CCCCN)NC(=O)c2ccc(-c3ccc(Cl)cc3)cc2)c2ccc(O)c(c2)-c2cc(ccc2O)C[C@@H](C(=O)N[C@@H](C)C(=O)N2CSC[C@@H]2C(N)=O)NC1=O [Compound 175] | 32 µg/mL (≈ 34 µM) | > 64 µg/mL | 32 µg/mL (≈ 34 µM) |  |  |  |
